Assay results taken from article PMC11117716 (Biomolecules, 2024).

Experiments:
[1] = Plasma pharmacokinetics after oral Posiphen in CD-1 mice (LC-MS/MS); conditions: for AUC(0-t) / Cmax / Tmax: po
Protocol: (§1) The animal PKs were taken from multiple GLP toxicology studies, biomarker studies, and efficacy studies. […] Sample size (n) represents the number of animals at each time point of sample collection. […] The dose volume was determined according to animals’ weight collected on the dosing day.
(§2) In mice, blood samples were collected via the saphenous vein or other suitable blood collection site into a microcentrifuge tube containing the anti-coagulant K2-EDTA on wet ice and processed for plasma. For samples collected within the first hour of dosing, ±1 min is acceptable, while for all other timepoints, samples were taken within 5% of the scheduled time and are not considered as protocol deviations. Plasma samples were centrifuged (3200× g for 10 min at 4 °C) within an hour of collection. CSF samples were collected with 3 μL volume per time point, frozen on dry ice, and stored at −60 °C for further analysis. For brain collection in mice, animals were euthanized using CO2 inhalation. Whole brain was collected, washed in cold saline, dried, and homogenized immediately […]. Homogenizing buffer MeOH/15 mM PBS (1:2, v:v) was used at a ratio of 1:9 (1 g of tissue with 9 mL of buffer; the dilution ratio is 10).
(§3) In humans, the bioanalytical method was performed in accordance with current FDA, Industry Guidelines, and OECD Principles. […] The sample analysis was conducted in accordance with current GCP and GLP principles, and the results were presented for pharmacokinetic profiling (Absorption Systems, Exton, PA, USA). Calibration ranges for each analyte ranged from 1000 ng/mL to 1 ng/mL (or ng/g for brain) in plasma, brain, and CSF matrices. The detection limit was 0.025 ng/mL. The following PK parameters were collected for the purpose of this manuscript: maximum concentration (Cmax), time to maximum drug concentration (Tmax), half-life (T1/2), and the Area Under the Curve (AUC).
Blood plasma samples were collected at various time points within the initial 8 h following administration (6 h for humans). Plasma concentrations (ng/mL) were measured over the 8 h observation window to characterize the maximum concentration (Cmax), the time to peak drug concentration (Tmax), the half-life (T1/2), and the Area Under the Curve (AUC).

[2] = clinical; conditions: human, in vivo; for Kp: 80 mg/day; for AUC(0-t) / Cmax: po
Protocol: This paper describes data from multiple studies. The healthy volunteers’ data come from the single ascending and multiple ascending dose study, whereas Alzheimer’s and Parkinson’s patients are represented by the MCI NCT01072812 study, ADCS NCT02925650 study, and AD/PD NCT04524351 study. The evaluations are based on a sample size of n = 4 for each time point.
In humans, plasma and lumbar CSF samples were collected via an indwelling catheter over 12 h (at 0, 1, 1.5, 2, 3, 4, 6, 8, and 12 h) initiated at the same time of day, 1 day prior to the start of dosing, to obtain time-dependent baseline control data, and then at the exact same times immediately after the last dose was administered. Samples were frozen and then stored at −80 °C.
as §3

[3] = in vivo
Protocol: as §1, §2, §3

[4] = tested on: neurotoxic aggregating proteins; conditions: cited from earlier work
[5] = tested on: acetylcholinesterase; conditions: cited from earlier work
[6] = Plasma pharmacokinetics after oral Posiphen in Beagle dogs (LC-MS/MS); set-up: species or system dog; conditions: dog plasma
Protocol: In rats and dogs, blood samples were centrifuged, and the resultant plasma was separated, and 200 µL (rat) or 400 µL (dog) of plasma was transferred to uniquely labeled pre-chilled polypropylene tubes containing 5 µL (rat) or 10 µL (dog) Dichlorvos spiking solution (nominal concentration of 0.82 mg/mL in MeOH/Water, 20/80, v/v).
(§4) The detection limit was 0.025 ng/mL.

[7] = Plasma pharmacokinetics after oral Posiphen in humans (LC-MS/MS); type: in vivo, human; conditions: human, in vivo, po; for AUC(0-t): read-out: AUC (0-t)
Protocol: This paper describes data from multiple studies.
Samples were frozen and then stored at −80 °C.
as §4

[8] = both, CD-1, mouse, in vivo, 65 mg/kg
[9] = CD-1, mouse, in vivo, po, 65 mg/kg, Cmax, Table 2, mouse CSF, oral Posiphen

| Compound | concentration at 0.25 h [1, 8] | concentration at 0.5 h [1, 8] | concentration at 1 h [1, 8] | concentration at 1.25 h [1, 8] | concentration at 1.5 h [1, 8] | concentration at 2 h [1, 8] | concentration at 4 h [1, 8] | concentration at 12 h [1, 8] | AUC(0-t) [1, 8] | Cmax [1, 8] | Tmax [1, 8] | Kp [2] | AUC(0-t) [2] | Cmax [2] | Cmax [3, 9] | Cmax ([3]; CD-1, mouse, po, 65 mg/kg) | TINAP activity [4] | Acetylcholinesterase inhibitory (AChEI) activity [5] | Cmax [7] | AUC(0-t) [7] | further results |
| --- | --- | --- | --- | --- | --- | --- | --- | --- | --- | --- | --- | --- | --- | --- | --- | --- | --- | --- | --- | --- | --- |
| CN1c2ccc(OC(=O)Nc3ccccc3)cc2[C@@]2(C)CCNC12 (stereo partly shown) [N1, N1-norposiphen] | 350 ng/mL | 484 ng/mL | 446 ng/mL | 554 ng/mL | 525 ng/mL | 419 ng/mL | 83.6 ng/mL | 0 ng/mL | 1400 ng·h/mL | 554 ng/mL | 1.25 h | 0.1 | 26.7 ng·h/mL | 2.56 ng/mL | 54.5 ng/mL | 1850 ng/mL | has both TINAP and AChEI activities | has both TINAP and AChEI activities | 24.9 ng/mL | 213 ng·h/mL | concentration at 8 h [1, 8]: 3.64 ng/mL; Plasma level relative to N8 ([1]; mouse plasma): a fourth; Plasma level relative to Posiphen ([1]; mouse plasma): half; Cmax ([3]; Table 2, mouse CSF, oral Posiphen): 54.4 ng/mL; Primary compound in plasma [6]: primary compound |
| C[C@]12CCNC1Nc1ccc(OC(=O)Nc3ccccc3)cc12 (stereo partly shown) [N1, N8, N1,N8-norposiphen] | – | – | – | – | – | – | – | – | – | – | – | – | – | – | – | – | – | – | 3.66 ng/mL | 36.9 ng·h/mL | – |
| CN1CC[C@]2(C)c3cc(OC(=O)Nc4ccccc4)ccc3NC12 (stereo partly shown) [N8, N8-norposiphen] | 882 ng/mL | 1310 ng/mL | 1560 ng/mL | 1790 ng/mL | 1930 ng/mL | 1830 ng/mL | 478 ng/mL | 0 ng/mL | 5330 ng·h/mL | 1930 ng/mL | 1.5 h | 0.17 | 54.9 ng·h/mL | 5.08 ng/mL | 309 ng/mL | 7290 ng/mL | have TINAP | no acetylcholinesterase inhibitory (AChEI) activity | 30.4 ng/mL | 260 ng·h/mL | Plasma level relative to N1 ([1]; mouse plasma): 3.8 times; half-life [2]: > 12 h |
